Results taken from patent US20040035690A1, “Method and apparatus for chemical and biochemical reactions using photo-generated reagents” (The Regents Of The University Of Michigan, priority 1998, published 2004).
“Also recorded” adds a separate entry of the source. No end group written: not given here. dns = not defined here

What was measured:
mouse MAb DO-1 = assay: Oligopeptide immunoassay with MAb DO-1 and FITC-tagged secondary antibody; assay type: binding; details: hexapeptide microarray made with acid PGR, FITC-tagged rabbit anti-mouse IgG
Method: Solid substrates comprising oligopeptids were washed with PBS (phosphate-buffered saline, 25 mM NaH2PO4, 125 mM NaCl, pH 7.4), PBST (PBS, 0.2% (V/V) Tween 20), and PBS, respectively. Next, the solid substrates were then incubated with mouse MAb DO-1, which recognizes amino acid residue 20-25 of human tumor suppressor protein p53, in PBS at room temperature for 2 h. After washing with PBST and PBS, samples were treated with FITC-tagged secondary rabbit anti-mouse immunoglobulin (IgG) overnight at 4° C. Following washing with PBST and PBS, fluorescence of the solid substrate was measured.

[1] = Pb^2+ ion binding assay of oligopeptides on microarray (fluorescence); details: peptide microarray made with acid PGR; lead chloride in buffer
Method: (§1) 5-dimethylaminonaphthalene-1-sulfonyl chloride (dansyl chloride, dns) generated fluorescence was also performed by contacting the solid substrate with a mixture of dns (1.25 mmol) and triethylamine (0.125 mmol) in DMF for 4 h at room temperature. The fluorescence detection was done in the same manner as previously described for FAM with the exception that the excitation wavelength was 365 nm.
For the Pb^2+ ion assay, solid substrates comprising oligopeptides were washed with a buffer solution containing 100 mM HEPES (pH 7.1) and 10% methanol. Samples were then treated with 0.1 mM lead chloride in buffer overnight at room temperature. After washing with buffer solution and methanol the solid substrates were left to dry in an inert atmosphere in the dark.

[2] = As^3+ ion binding assay of oligopeptides on microarray (fluorescence); details: peptide microarray made with acid PGR; NaAsO2
Method: as §1
For the As^3+ ion assay, the assay was performed by the same procedure as the Pb^2+ assay but the buffer was 10 mM sodium acetate (pH 4.0) containing 100 mM NaCl and 0.1 mM sodium arsenite (NaAsO2) was the metal ion solution.

Row | Substance | fluorescence labeling / fluorescence intensity on binding of MAb DO-1 (mouse MAb DO-1) | fluorescence labeling / fluorescence intensity on Pb^2+ binding [1] | further results
1 | DSLGKL: hexapeptide analogue of SDLHKL on the microarray (DSLHKL; printed: Asp-Ser-Leu-His-Lys-Leu) | fluorescence intensity is not detected |  | 
2 | H2N-Glu-Glu-Glu-Glu (EEEE; printed: Glu-Glu-Glu-Glu) [tetrapeptide analogue on the microarray] |  | increase is fluorescence is not observed | 
3 | SDLHKL [hexapeptide, amino acid residue 20-25 of human p53 protein] | selective labeling |  | fluorescence labeling / fluorescence intensity on binding of MAb DO-1 (mouse MAb DO-1; listed as SDLHKL): fluorescence intensity is detected
4 | SGLHKL [hexapeptide analogue of SDLHKL on the microarray] | fluorescence intensity is not detected |  | 
5 | dns-Cys-Cys-Cys-Cys |  | increase is fluorescence is not observed | 
6 | dns-Glu-Cys-Glu-Glu |  | significant increase in fluorescence intensity; also recorded: selective labeling | 
7 | dns-Glu-Glu-Glu-Glu |  |  | fluorescence labeling / fluorescence intensity on As^3+ binding [2]: fluoresence intensity is greatest; also recorded: selective labeling
8 | dns-Gly-Gly-Gly-Gly (dns-GGGG; reading uncertain; also: printed as dns-Gly-Gly-Gly-Gly) [das-Gly-Gly-Gly-Gly, dansyl-labeled tetrapeptide] |  | increase is fluorescence is not observed | 
